Data from US20210238197A1, “NOVEL OXOQUINOLIZINE COMPOUNDS FOR THE TREATMENT AND PROPHYLAXIS OF BACTERIAL INFECTION” (Hoffmann-La Roche Inc., priority 2018, published 2021).
Values after ≈ are worked out from the molar mass of the structure shown. Read-outs that look alike come from different tables or passages of the source.

Assays:
[1] = test system: multiple species and strains; assay: microbe, parasite or virus in culture; design: MIC S9 / MIC S7 / MIC S11 / MIC S8 / MIC S10: unit not given beside the values; details: for MIC S9: E. coli ATCC 35218
Description: The MIC of antibacterial compounds against multiple species and strains was determined using the broth microdilution method according to M07-A10 Clinical and Laboratory Standards Institute (CLSI) guidelines (CLSI (2015) Methods for dilution antimicrobial susceptibility tests for bacteria that grow aerobically; Approved Standard, Tenth Edition. CLSI Document M7-A10 (ISBN 1-56238-987-4). Wayne, Pa.: Clinical and Laboratory Standards Institute, 19087, USA.). In short, bacterial strain preparation was performed on D1 and D2. […] 5-10 well-isolated colonies of similar morphology were selected and re-streaked onto fresh agar plates using sterile loops and incubated for 20-24 hr at 35±2° C. Bacterial strains were subcultured two times to ensure fresh inoculums for MIC screening. […] Alternatively, 1-2 colonies were transferred into 500 μL of saline and OD600 was adjusted to ˜0.1 using an OD meter. Bacterial inoculum was diluted by 1:280 for Gram-positive strains and 1:400 for Gram-negative strains into corresponding medium broth (CAMHB, CAMHB+3% lysed horse blood, HTM) (e.g. 35.6 μL of inoculum into 10 mL of CAMHB or 25 μL of inoculum into 10 mL of CAMHB). For compound plate, the compound stock solutions were prepared in 100% DMSO on the day of MIC screening and used immediately. Compound stock concentration=[(highest testing concentration)×100 μL/2 μL] (e.g. if the required highest testing concentration is 64 μg/mL in assay plates, stock concentration=64 μg/mL×100 μL/2 μL=3.2 mg/mL). […] 1 μL of each well was transferred in a new MTP, which served as the test plate by subsequent inoculation. The bacterial suspension prepared above is dispensed at 98 μL/well within 15 minutes after preparation. Negative controls (lack of bacterial cells) and growth control wells (lack of compound) were included in all plates. MTPs were incubated for 18-24 hours at 35±2° C. in ambient air. The MIC was recorded and CFUs were calculated on Day 4. The assay plate was placed on the top of MIC reader, and the magnification mirror was adjusted to read each wells, recording growth status as raw data. Photo images of each assay plates were recorded using Q Count 530 (Spiral Biotech). The MIC value of each compound, expressed as μg/mL, was determined as the lowest concentration required for complete growth inhibition (no visible growth).

[2] = test system: A. baumannii (ATCC17978); assay: 50% growth inhibitory concentration (IC50) determination assay, A. baumannii; type: cell-based; details: Acinetobacter baumannii, ATCC17978; Iso-Sensitest broth, growth by OD 600 nm over 16 h; <0.098 = detection limit
Description: (§1) The in vitro antimicrobial activity of the compounds against S. aureus (ATCC29213), K. pneumoniae (ATCC10031), and A. baumannii (ATCC17978), was determined according to the following procedure: The assay used a 10-points Iso-Sensitest broth medium to measure quantitatively the in vitro activity of the compounds against S. aureus ATCC29213, K. pneumoniae ATCC 10031, and A. baumannii ATCC17978. Stock compounds in DMSO were serially two-fold diluted (range from 50 to 0.097 μM final concentration) in 384 wells microtiter plates and inoculated with 49 μL the bacterial suspension in Iso-Sensitest broth medium to have a final cell concentration of ˜5×10^5 CFU/mL in a final volume/well of 50 μL/well. Microtiter plates were incubated at 35±2° C. Bacterial cell growth was determined with the measurement of optical density at λ=600 nm each 20 minutes over a time course of 16 h.

[3] = test system: K. pneumoniae (ATCC10031); assay: 50% growth inhibitory concentration (IC50) determination assay, K. pneumoniae; type: cell-based; details: Klebsiella pneumoniae, ATCC10031; Iso-Sensitest broth, growth by OD 600 nm over 16 h; <0.098 = detection limit
Description: as §1

[4] = test system: S. aureus (ATCC29213); assay: 50% growth inhibitory concentration (IC50) determination assay, S. aureus; type: cell-based; details: Staphylococcus aureus, ATCC29213; Iso-Sensitest broth, growth by OD 600 nm over 16 h; <0.098 = detection limit
Description: as §1

[5] = Acinetobacter baumannii, ATCC19606, read-out: MIC S1, A. baumannii ATCC 19606
[6] = Acinetobacter baumannii, ATCC51432, read-out: MIC S2, A. baumannii ATCC 51432
[7] = Acinetobacter baumannii, ATCCBAA747, read-out: MIC S3, A. baumannii ATCC BAA-747
[8] = Escherichia coli, ATCC25922, read-out: MIC S11, E. coli ATCC 25922
[9] = Escherichia coli, ATCCBAA2340, read-out: MIC S10, E. coli ATCC BAA-2340
[10] = Klebsiella pneumoniae, ATCC10031, read-out: MIC S4, K. pneumoniae ATCC 10031
[11] = Klebsiella pneumoniae, ATCC700603, read-out: MIC S5, K. pneumoniae ATCC 700603
[12] = Klebsiella pneumoniae, ATCCBAA2146, read-out: MIC S6, K. pneumoniae ATCC BAA-2146
[13] = Pseudomonas aeruginosa, ATCC27853, read-out: MIC S7, P. aeruginosa ATCC 27853
[14] = Pseudomonas aeruginosa, ATCCBAA2113, read-out: MIC S8, P. aeruginosa ATCC BAA-2113

CNc1cc(F)c(F)c2c1[nH]c1ncc(-c3ccc4c(C)cc(C(=O)O)c(=O)n4c3)c(N3CC[C@H]4CN(C)C[C@H]43)c12 (relative stereo) [Example 2.04, 7-[4-[cis-5-methyl-2,3,3a,4,6,6a-hexahydropyrrolo[2,3-c]pyrrol-1-yl]-5,6-difluoro-8-(methylamino)-9H-pyrido[2,3-b]indol-3-yl]-1-methyl-4-oxo-quinolizine-3-carboxylic acid]
MIC [1, 5]: 0.461 µg/mL (≈ 0.825 µM) | MIC [1, 6]: 0.614 µg/mL (≈ 1.1 µM) | MIC [1, 7]: 0.922 µg/mL (≈ 1.65 µM) | MIC S9 [1]: 0.614 | MIC [1, 8]: 0.173 µg/mL (≈ 0.31 µM) | MIC [1, 9]: 0.922 µg/mL (≈ 1.65 µM) | MIC [1, 10]: 0.077 µg/mL (≈ 0.138 µM) | MIC [1, 11]: 4.92 µg/mL (≈ 8.8 µM) | MIC [1, 12]: 4.92 µg/mL (≈ 8.8 µM) | MIC [1, 13]: 2.46 µg/mL (≈ 4.4 µM) | MIC [1, 14]: 3.69 µg/mL (≈ 6.6 µM) | IC50 [2]: < 98 nM | IC50 [3]: < 98 nM | IC50 [4]: < 98 nM

CNc1cc(F)c(F)c2c1[nH]c1ncc(-c3ccc4c(C5CC5)cc(C(=O)O)c(=O)n4c3)c(N3CC[C@H]4CN(C)C[C@H]43)c12 (relative stereo) [Example 2.05, 7-[4-[cis-5-methyl-2,3,3a,4,6,6a-hexahydropyrrolo[2,3-c]pyrrol-1-yl]-5,6-difluoro-8-(methylamino)-9H-pyrido[2,3-b]indol-3-yl]-1-cyclopropyl-4-oxo-quinolizine-3-carboxylic acid]
IC50 [2]: < 98 nM | IC50 [3]: < 98 nM | IC50 [4]: < 98 nM

CNc1cc(F)c(F)c2c1[nH]c1ncc(-c3ccc4c(Cl)cc(C(=O)O)c(=O)n4c3)c(N3CC[C@H]4CN(C)C[C@H]43)c12 (relative stereo) [Example 2.11, 7-[4-[cis-5-methyl-2,3,3a,4,6,6a-hexahydropyrrolo[2,3-c]pyrrol-1-yl]-5,6-difluoro-8-(methylamino)-9H-pyrido[2,3-b]indol-3-yl]-1-chloro-4-oxo-quinolizine-3-carboxylic acid]
MIC [1, 5]: 0.27 µg/mL (≈ 0.466 µM) | MIC [1, 6]: 0.541 µg/mL (≈ 0.934 µM) | MIC [1, 7]: 0.541 µg/mL (≈ 0.934 µM) | MIC S9 [1]: 1.081 | MIC [1, 8]: 0.203 µg/mL (≈ 0.351 µM) | MIC [1, 9]: 1.08 µg/mL (≈ 1.87 µM) | MIC [1, 10]: 0.068 µg/mL (≈ 0.117 µM) | MIC [1, 11]: 4.33 µg/mL (≈ 7.48 µM) | MIC [1, 12]: 4.33 µg/mL (≈ 7.48 µM) | MIC [1, 13]: 2.17 µg/mL (≈ 3.74 µM) | MIC [1, 14]: 4.33 µg/mL (≈ 7.48 µM) | IC50 [2]: < 98 nM | IC50 [3]: < 98 nM | IC50 [4]: < 98 nM

CNc1cc(F)c(C#N)c2c1[nH]c1ncc(-c3ccc4ccc(C(=O)O)c(=O)n4c3)c(N3C[C@H]4CCN(C)[C@H]4C3)c12 (single isomer, unassigned) [Example 1.11, 7-[5-cyano-6-fluoro-4-(cis-1-methyl-2,3,3a,4,6,6a-hexahydropyrrolo[3,4-b]pyrrol-5-yl)-8-(methylamino)-9H-pyrido[2,3-b]indol-3-yl]-4-oxo-quinolizine-3-carboxylic acid]
MIC [1, 5]: 0.26 µg/mL (≈ 0.471 µM) | MIC [1, 6]: 0.26 µg/mL (≈ 0.471 µM) | MIC [1, 7]: 0.26 µg/mL (≈ 0.471 µM) | MIC S11 ([1]; E. coli ATCC 25922): 0.097 | MIC S9 [1]: 0.260 | MIC [1, 9]: 0.26 µg/mL (≈ 0.471 µM) | MIC [1, 10]: 0.033 µg/mL (≈ 0.0598 µM) | MIC [1, 11]: 1.04 µg/mL (≈ 1.88 µM) | MIC [1, 12]: 1.04 µg/mL (≈ 1.88 µM) | MIC S7 ([1]; P. aeruginosa ATCC 27853): 1.038 | MIC [1, 14]: 2.08 µg/mL (≈ 3.77 µM) | IC50 [2]: < 98 nM | IC50 [3]: < 98 nM | IC50 [4]: < 98 nM

CNc1cc(F)c(F)c2c1[nH]c1ncc(-c3ccc4ccc(C(=O)O)c(=O)n4c3)c(N3CC4C(N(C)C)CO[C@@H]4C3)c12 (stereo partly drawn) [Example 1.06, 7-[4-[cis-3-(dimethylamino)-2,3,3a,4,6,6a-hexahydrofuro[2,3-c]pyrrol-5-yl]-5,6-difluoro-8-(methylamino)-9H-pyrido[2,3-b]indol-3-yl]-4-oxo-quinolizine-3-carboxylic acid]
IC50 [2]: < 98 nM | IC50 [3]: < 98 nM | IC50 [4]: 137 nM
